Reference: US20180250260A1, “METHODS FOR TREATING CANCER” (BOSTON BIOMEDICAL, INC., priority 2015, published 2018)

What was measured:
[1] = tested on: p-Stat3; assay: Cancer stemness biomarker immunofluorescence in cancer xenograft tumors: p-Stat3; type: in vivo, mouse xenograft; conditions: alone; cancer xenograft tumor model, FIG. 6
Protocol: (§1) The effects of 2-acetylnaphtho[2,3-b]furan-4,9-dione, a compound of formula (I), on cancer stem cell markers was examined in cancer xenograft models with and without irinotecan. Human cancer cells were subcutaneously implanted into the right flank of 5-7 weeks old female athymic nude mice. When tumor size reached 200 mm^3, animals were treated with 2-acetylnaphtho[2,3-b]furan-4,9-dione, irinotecan, or a combination of 2-acetylnaphtho[2,3-b]furan-4,9-dione and irinotecan. Tumors were harvested after first dosing.
(§2) The harvested tissues were fixed in 3.7% neutral buffered formaldehyde at 4° C. for overnight. The paraffin was embedded, cut to about 5 microns, and affixed onto positively-charged slides. After being baked and de-paraffinized, the slides with tumor or control tissues were incubated in 10 mM Sodium Citrate (pH 6.0) for 10 minutes. After antigen retrieval, slides were probed with primary antibodies P-STAT3 (rabbit, Cell Signaling, 1:100), 13-Catenine (mouse, Santa Cruz, 1:400) at 4° C. overnight, and then Alexa Fluor fluorescent dyes-conjugated secondary antibodies (1:500, Invitrogen). After mounting, the slides with ProLong mounting medium with DAPI (Invitrogen) were examined under a Zeiss fluorescence microscope with 20× objective, and analyzed with Zen software.

[2] = tested on: β-catenin; assay: Cancer stemness biomarker immunofluorescence in cancer xenograft tumors: β-catenin; type: in vivo; conditions: alone; cancer xenograft tumor model, FIG. 6
Protocol: as §1, §2

Compound: CCc1c2c(nc3ccc(OC(=O)N4CCC(N5CCCCC5)CC4)cc13)-c1cc3c(c(=O)n1C2)COC(=O)[C@]3(O)CC [irinotecan, reference compound]
- staining for stem cell marker p-Stat3 [1]: enhanced staining
- staining for stem cell marker β-catenin [2]: enhanced staining
